In ChEMBL document CHEMBL3352542, “Synthesis, biological evaluation and molecular modeling study of 2-(1,3,4-thiadiazolyl-thio and 4-methyl-thiazolyl-thio)-quinazolin-4-ones as a new class of DHFR inhibitors” (Bioorg Med Chem Lett, 2014):
pIC50: −log10 of the molar value. Active and inactive are the calls of the source. No cut-off for these calls is given here.

Tests used:
[1] = Growth inhibition of human SF295 cells at 10 uM after 48 hrs; assay type: functional; details: SF-295, 48 h, read-out: GI
NCI-H522 = assay: Growth inhibition of human NCI-H522 cells at 10 uM after 48 hrs; assay type: functional
Escherichia coli = assay: Antimicrobial activity against Escherichia coli assessed as inhibition zone at 200 ug/disk after 24 hrs by disc-diffusion method; assay type: functional; details: read-out: IZ
[2] = Growth inhibition of human PC3 cells at 10 uM after 48 hrs; assay type: functional; details: PC-3, 48 h, read-out: GI
SR = assay: Growth inhibition of human SR cells at 10 uM after 48 hrs; assay type: functional; details: read-out: GI
[3] = Growth inhibition of human RPMI8226 cells at 10 uM after 48 hrs; assay type: functional; details: RPMI-8226, 48 h, read-out: GI
[4] = Growth inhibition of human OVCAR4 cells at 10 uM after 48 hrs; assay type: functional; details: OVCAR-4, 48 h, read-out: GI
Bacillus subtilis = assay: Antimicrobial activity against Bacillus subtilis assessed as inhibition zone at 200 ug/disk after 24 hrs by disc-diffusion method; assay type: functional; details: read-out: IZ
K562 = assay: Growth inhibition of human K562 cells at 10 uM after 48 hrs; assay type: functional; details: K562, 48 h, read-out: GI
[5] = Growth inhibition of human UACC62 cells at 10 uM after 48 hrs; assay type: functional; details: UACC-62, 48 h, read-out: GI
Staphylococcus aureus = assay: Antimicrobial activity against Staphylococcus aureus assessed as inhibition zone at 200 ug/disk after 24 hrs by disc-diffusion method; assay type: functional; details: read-out: IZ
[6] = Growth inhibition of human HOP92 cells at 10 uM after 48 hrs; assay type: functional; details: HOP-92, 48 h, read-out: GI
MCF7 = assay: Growth inhibition of human MCF7 cells at 10 uM after 48 hrs; assay type: functional; details: MCF7, 48 h, read-out: GI
Pseudomonas aeruginosa = assay: Antimicrobial activity against Pseudomonas aeruginosa assessed as inhibition zone at 200 ug/disk after 24 hrs by disc-diffusion method; assay type: functional; details: read-out: IZ
[7] = (§1) Growth inhibition of human UO31 cells at 10 uM after 48 hrs; assay type: functional; details: UO-31, 48 h, read-out: GI
NCI-H226 = assay: Growth inhibition of human NCI-H226 cells at 10 uM after 48 hrs; assay type: functional; details: NCI-H226, 48 h, read-out: GI
Candida albicans = assay: Antimicrobial activity against Candida albicans assessed as inhibition zone at 200 ug/disk after 24 hrs by disc-diffusion method; assay type: functional; details: read-out: IZ
[8] = Growth inhibition of human RXF393 cells at 10 uM after 48 hrs; assay type: functional; details: RXF 393, 48 h, read-out: GI
Dihydrofolate reductase = target: T1, Dihydrofolate reductase (Bos taurus, UniProt P00376); assay: Inhibition of bovine liver DHFR
T1 sequence (P00376 whole entry): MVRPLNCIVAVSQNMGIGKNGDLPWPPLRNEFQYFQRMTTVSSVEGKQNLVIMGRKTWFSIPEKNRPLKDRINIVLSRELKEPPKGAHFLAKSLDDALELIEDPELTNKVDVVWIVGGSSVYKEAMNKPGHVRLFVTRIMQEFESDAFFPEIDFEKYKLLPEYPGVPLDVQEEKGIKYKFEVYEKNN

A498 = assay: Growth inhibition of human A498 cells at 10 uM after 48 hrs; assay type: functional; details: A498, 48 h, read-out: GI
CAKI-1 = assay: Growth inhibition of human CAKI-1 cells at 10 uM after 48 hrs; assay type: functional; details: CAKI-1, 48 h, read-out: GI
[9] = Growth inhibition of human MOLT4 cells at 10 uM after 48 hrs; assay type: functional; details: MOLT-4, 48 h, read-out: GI
T47D = assay: Growth inhibition of human T47D cells at 10 uM after 48 hrs; assay type: functional; details: read-out: GI
CCRF-CEM = assay: Growth inhibition of human CCRF-CEM cells at 10 uM after 48 hrs; assay type: functional; details: read-out: GI
KM12 = assay: Growth inhibition of human KM12 cells at 10 uM after 48 hrs; assay type: functional; details: KM12, 48 h, read-out: GI
SK-MEL-5 = assay: Growth inhibition of human SK-MEL-5 cells at 10 uM after 48 hrs; assay type: functional; details: SK-MEL-5, 48 h, read-out: GI
[10] = Growth inhibition of human HCT15 cells at 10 uM after 48 hrs; assay type: functional; details: HCT-15, 48 h, read-out: GI
UO-31 = assay: as §1; assay type: functional
[11] = Growth inhibition of human HCT116 cells at 10 uM after 48 hrs; assay type: functional; details: HCT-116, 48 h, read-out: GI
MDA-MB-468 = assay: Growth inhibition of human MDA-MB-468 cells at 10 uM after 48 hrs; assay type: functional; details: MDA-MB-468, 48 h, read-out: GI
HL-60(TB) = assay: Growth inhibition of human HL-60(TB) cells at 10 uM after 48 hrs; assay type: functional; details: HL-60, 48 h, read-out: GI
A549 = assay: Growth inhibition of human A549 cells at 10 uM after 48 hrs; assay type: functional; details: A549, 48 h, read-out: GI
HT-29 = assay: Growth inhibition of human HT-29 cells at 10 uM after 48 hrs; assay type: functional; details: HT-29, 48 h, read-out: GI

| Structure (SMILES) | inhibition of growth at 10 µM [1] | zone of inhibition at 200 µg/disc (Escherichia coli) | inhibition of growth at 10 µM [2] | inhibition of growth at 10 µM (SR) | inhibition of growth at 10 µM [3] | inhibition of growth at 10 µM [4] | zone of inhibition at 200 µg/disc (Bacillus subtilis) | inhibition of growth at 10 µM (K562) | inhibition of growth at 10 µM [5] | zone of inhibition at 200 µg/disc (Staphylococcus aureus) | inhibition of growth at 10 µM [6] | inhibition of growth at 10 µM (MCF7) | zone of inhibition at 200 µg/disc (Pseudomonas aeruginosa) | inhibition of growth at 10 µM [7] | inhibition of growth at 10 µM (NCI-H226) | zone of inhibition at 200 µg/disc (Candida albicans) | inhibition of growth at 10 µM [8] | pIC50 (Dihydrofolate reductase) | inhibition of growth at 10 µM (A498) | inhibition of growth at 10 µM [9] | also measured |
| --- | --- | --- | --- | --- | --- | --- | --- | --- | --- | --- | --- | --- | --- | --- | --- | --- | --- | --- | --- | --- | --- |
| COc1ccc(-n2c(Sc3sc(N)nc3C)nc3ccc(Cl)cc3c2=O)cc1 | 27.6% | 8 mm | 14.7% | 13.5% | 14.6% | 13.8% | 8 mm | 14.3% | 12.6% | 8 mm | 24.9% | 11.5% | 8 mm | 35.5% | 11.8% | 8 mm | 13.4% | 5.10 | 24.3% |  | inhibition of growth at 10 µM (NCI-H522; NCI-H522, 48 h, read-out: GI): 10.5%; inhibition of growth at 10 µM (CAKI-1): 13.1% |
| COc1ccc(-n2c(Sc3nnc(N)s3)nc3ccc(Cl)cc3c2=O)cc1 | 11% | 8 mm |  | 19.1% |  |  | 8 mm |  |  | 8 mm | 42.1% | 13.2% | 8 mm | 21.1% | 13.4% | 8 mm |  | 6.10 | 36.4% | 12% | inhibition of growth at 10 µM (T47D): 12% |
| COc1cc2nc(Sc3nnc(N)s3)n(-c3ccc(Oc4ccccc4)cc3)c(=O)c2cc1OC |  | 8 mm | 23.2% | 57.3% | 43.7% | 34.6% | 8 mm | 22.5% | 22.1% | 8 mm |  | 14.8% | 8 mm |  | 13.4% | 8 mm | 10.7% | 6.22 | 19.3% | 29.6% | inhibition of growth at 10 µM (CCRF-CEM): 11.2%; growth inhibition (GI) (NCI-H522): inactive; inhibition of growth at 10 µM (KM12): 20.7%; inhibition of growth at 10 µM (SK-MEL-5): 28.2%; inhibition of growth at 10 µM [10]: 21.4%; growth inhibition (GI) (UO-31): inactive; inhibition of growth at 10 µM [11]: 11.5%; inhibition of growth at 10 µM (MDA-MB-468): 22.6%; inhibition of growth at 10 µM (HL-60(TB)): 11.2%; inhibition of growth at 10 µM (A549): 15.2%; inhibition of growth at 10 µM (T47D): 38.4%; inhibition of growth at 10 µM (HT-29): 17.6% |
